The text below walks through data of patent US5420289A, “Substituted indole-, indene-, pyranoindole- and tetrahydrocarbazole-alkanoic acid derivatives as inhibitors of PLA2 and lipoxygenase” (American Home Products Corporation, priority 1993, dated 1995).

Assay [1] concerns 5-lipoxygenase in human whole blood. Put plainly: inhibition of 5-lipoxygenase in human whole blood (Example 79). It is filed as cell-based. To be noted: for IC50: human whole blood, read-out: IC50 (inhibition of LTB4). The protocol:
The assay of this Example measures the ability of the compounds tested to inhibit 5-lipoxygenase in human whole blood.
(§1) This assay is carried out as follows:
Blood is obtained in 50-100 ml quantities from male donors. White blood cell counts and differentials are made. Two ml of blood are placed in a 15 ml polypropylene test tube. Compounds are solubilized in dimethylsulfoxide and diluted 1:10 in 10% bovine serum albumin in phosphate buffered saline, pH 7.4 resulting in a final dimethylsulfoxide concentration of 0.1% in the blood. Then, compounds are added to the blood in a shaking water bath at 37° C. for 10 minutes prior to the addition of […] calcium ionophore (A23187; Sigma). After ionophore administration, whole blood samples are mixed and incubated for 20 minutes at 37° C. in a shaking water bath. Incubation is terminated by placing samples in an ice bath and immediately adding ethylene glycol-bis-(b-aminoethyl ether)-N,N,N',N'-tetraacetic acid (10 mM). Samples are mixed and centrifuged at 1200 × g for 15 minutes at 4° C. Preparation of samples for evaluation by RIA or ELISA is carried out by the following protocol. Plasma is removed from sample tubes, placed in 15 ml polypropylene test tubes containing 8 ml methanol, and then vortexed to precipitate protein. Samples are stored at -70° C. overnight. The next day, samples are centrifuged at 200 × g for 15 minutes at 4° C. to pellet the precipitate. Samples are dried in a Savant speed vac concentrator, reconstituted to original volume with ice cold RIA or ELISA buffer, and stored at -70° C. until assayed. The assay for eicosanoids (LTB4, T×B2, and PGE2) is performed as described by the manufacturer of the [^3 H]-RIA kit or ELISA kit (LTB4 -Amersham, TxB2 and PGE2 - Caymen Chemical).
The total eicosanoid level in 2 ml of blood is calculated and reported as ng/10^6 neutrophils. […] Drug effects are expressed as percent change from control values.
Compounds tested in vitro are solubilized in dimethylsulfoxide and diluted 1:10 in 10% bovine serum albumin in phosphate buffer saline resulting in a final dimethylsulfoxide concentration of 0.1% i n the blood.

Assay [2] addresses T1, human synovial fluid PLA2 (Homo sapiens, UniProt P14555).
T1 sequence (P14555 21-144): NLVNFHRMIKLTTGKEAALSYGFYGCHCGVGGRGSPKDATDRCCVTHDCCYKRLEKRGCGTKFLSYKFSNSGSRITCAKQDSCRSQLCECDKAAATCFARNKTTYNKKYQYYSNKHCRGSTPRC
Description: in vitro isolated phospholipase A2 assay, human synovial fluid PLA2 (Example 74). It is filed as biochemical. Set-up: inhibition / % Inhibition, HSF (human synovial fluid): dose or concentration left out as unconfirmed. The following applies: for inhibition: read-out: % Inhibition, HSF (human synovial fluid); for IC50: Table III, read-out: IC50 HSF (human synovial fluid). The protocol:
The compounds of the invention are tested in an in vitro isolated phospholipase A2 assay to determine the ability of the test compounds to inhibit the release of arachidonic acid from an arachidonic acid-containing substrate by the action of phospholipase A2 enzyme from human and non-human sources.
as §1
Into a 15 mL polypropylene tube are added the following:
^6 Two human PLA2 enzymes are used:
b) Purified human synovial fluid.
Incubate the 100mL reaction mixture for 10 minutes at 37° C. in a shaking water bath. The reaction is terminated by the addition of 2 mL tetrahydrofuran, followed by vortexlag. NH2 columns (100 mg/mL--Analytichem International) are conditioned with 0.5 mL tetrahydrofuran followed by 0.5 mL tetrahydrofuran/water (2 mL:0.1 mL, v/v).
The sample is loaded onto the columns and slowly drawn through them. The hydrolyzed arachidonic acid retained in the columns is eluted therefrom with 1 mL tetrahydrofuran/glacial acetic acid (2%). The arachidonic acid is transferred to scintillation vials and quantitated by b-counting analysis. A "total counts" sample is prepared by pipetting […] ^3 H-arachidonate E. coli directly into a scintillation vial to which is added 1 mL tetrahydrofuran. 10 mL aquasol (scintillation cocktail) is added to all samples. [formula]

Broadly, the inhibition is the percentage by which the read-out fell short of the control. The IC50 is the midpoint of a concentration-inhibition curve.

Structures can show the parent of a compound that is named as a salt.

In the case of `Cc1c(CC(=O)O)c2cc(OCc3csc(-c4ccccc4)n3)ccc2n1Cc1ccc2ccccc2c1` [Example 67, 5-[(2-Phenyl-4-thiazolyl)methoxy]-1-(2-nanhthalenylmethyl)-2-methyl-1H-indole-3-acetic acid], the “% Inhibition of LTB4” value in assay [1] (25 μM) is recorded as 30%. The inhibition in assay [2] worked out at 49%. Regarding `O=C(O)Cc1cn(Cc2ccc(Cl)cc2)c2ccc(OCc3ccc4ccccc4n3)cc12` [Example 33, 1-[(4-Chlorophenyl)methyl]-5-(2-quinolinylmethoxy)-1H-indole-3-acetic acid], the inhibition in assay [2] came to 38%. In the case of `CCOC(=O)Cc1c(C)n(Cc2cccc(OC)c2)c2ccc(OCc3csc(-c4ccccc4)n3)cc12` [Example 59, 5-[(2-Phenyl-4-thiazolyl)methoxy]-1-[[(3-methoxy)phenyl]methyl]-2-methyl-1H-indole-3-acetic acid ethyl ester], the inhibition in assay [2] was 6%. Regarding `Cc1c(CC(=O)O)c2cc(OCc3nc4ccccc4s3)ccc2n1Cc1ccc(Cl)cc1` [Example 37, 1-[(4-Chlorophenyl)methyl]-2-methyl-5-(2-benzothiazolylmethoxy)-1H-indole-3-acetic acid], the inhibition in assay [2] was 39%. As to “1-[(4-Chlorophenyl)methyl]-5-(2-quinolinylmethoxy)-1H-indole-3-acetic acid [Example 32]”, the “% Inhibition, HSF (human synovial fluid)” value in assay [2] is recorded as 36%. For the compound `Cc1c(CC(=O)O)c2cc(OCc3ccc4ccccc4n3)ccc2n1Cc1ccc(OCc2ccc3ccccc3n2)cc1` [Example 28, 2-Methyl-5-(2-quinolinylmethoxy)-1-[[4-(2-quinolinylmethoxy)phenyl]methyl]-1H-indole-3-acetic acid hemihydrate], in assay [2], the inhibition stood at 41%.

For `Cc1c(CC(=O)O)c2cc(OCc3ccccn3)ccc2n1Cc1ccc(Cl)cc1` [Example 36, 1-[(4-Chlorophenyl)methyl]-2-methyl-5-(2-pyridinylmethoxy)-1H-indole-3-acetic acid], the inhibition in assay [2] came out at 46%. For the compound `CC(C)c1ccc2c(c1)c(SC(C)(C)C)c(CC(C)(C)C(=O)O)n2Cc1ccc(Cl)cc1` [L-663,536, reference compound], the “% Inhibition of LTB4” value in assay [1] (3 μM) came to 96%. In the case of `Cc1c(CC(=O)N(C)O)c2cc(OCc3ccc4ccccc4n3)ccc2n1Cc1ccc(Cl)cc1` [Example 22, 1-[(4-Chlorophenyl)methyl]-2-methyl-N-(methyl)-N-(hydroxy)-5-(2-quinolinylmethoxy)-1H,indole-3-acetamide three quarters hydrate], the “% Inhibition of LTB4” value in assay [1] (25 μM) was 78%. The IC50 in assay [1] was found to be 39.8 µM. Take `Cc1c(CC(=O)O)c2cc(OCc3csc(-c4ccccc4)n3)ccc2n1Cc1ccc(Cl)cc1` [Example 38, 1-[(4-Chlorophenyl)methyl]-2-methyl-5-[(2-phenyl-4-thiazolyl)methoxy]-1H-indole-3-acetic acid]: the inhibition in assay [2] stood at 31%.

Consider `Cc1c(CC(=O)NS(=O)(=O)c2ccccc2)c2cc(OCc3ccc4ccccc4n3)ccc2n1Cc1ccc(Cl)cc1` [Example 23], for which the inhibition in assay [2] is 64%. Consider `CC1=C(CC(=O)N(C)O)c2cc(F)ccc2C1=Cc1ccc(OCc2ccc3ccccc3n2)cc1` [Example 44, 5-Fluoro-N-hydroxy-N,2-dimethyl-1-[[4-(2-quinolinylmethoxy)penyl]methylene]-1H -indene-3-acetamide hydrochloride], for which the “% Inhibition of LTB4” value in assay [1] (25 μM) is 94%. In assay [1], the 50% inhibitory concentration (IC50) was determined as 4.5 µM. Regarding `Cc1c(CC(=O)O)c2cc(OCc3ccc4ccccc4n3)ccc2n1Cc1ccc(C(=O)O)cc1` [Example 27, 1-[(4-Carboxyphenyl)methyl]-2-methyl-5-(2-quinolinylmethoxy)-1H-indole-3-acetic acid], the inhibition in assay [2] turned out to be 45%.

Turning to `CCOC(=O)Cc1c(C)n(Cc2ccc(C(C)(C)C)cc2)c2ccc(OCc3csc(-c4ccccc4)n3)cc12` [Example 61, 5-[(2-Phenyl-4-thiazolyl)methoxy]-1-[[4-(1,1-dimethylethyl)phenyl]methyl]-2-methyl-1H-indole-3-acetic acid ethyl ester], the “% Inhibition of LTB4” value in assay [1] (25 μM) stood at 5%.

Regarding `CSc1ccc(Cn2c(C)c(CC(=O)O)c3cc(OCc4csc(-c5ccccc5)n4)ccc32)cc1` [Example 58, 5-[(2-Phenyl-4-thiazolyl)methoxy]-1-[[(4-methylthio)phenyl]methyl]-2-methyl-1H -indole-3-acetic acid], the inhibition in assay [2] worked out at 43%. With `Cc1c(CC(=O)O)c2cc(OCc3ccc4ccccc4c3)ccc2n1Cc1ccc(Cl)cc1` [Example 34, 1-[(4-Chlorophenyl)methyl]-2-methyl-5-(2-naphthalenylmethoxy)-1H-indole-3-acetic acid], the IC50 in assay [2] stood at 33.7 µM. As to `Cc1c(CC(=O)O)c2cc(OCc3ccccc3)ccc2n1Cc1ccc(Cl)cc1` [Example 35, 1-[(4-Chlorophenyl)methyl]-2-methyl-5-(phenylmethoxy)-1H-indole-3-acetic acid], in assay [2], the IC50 was 52.9 µM and the inhibition came to 28%. `Cc1c(CC(=O)N(C)O)c2cc(OCc3csc(-c4ccccc4)n3)ccc2n1Cc1ccccc1` [Example 57, N-hydroxy-5-[(2-phenyl-4-thiazolyl)methoxy]-1-(phenylmethyl)-N,2-dimethyl-1H-indole-3-acetamide]: in assay [1], the IC50 was 43.3 µM. As to `CC(c1cc2ccccc2s1)N(O)C(N)=O` (stereo not drawn) [Example A-64077, reference compound], the “% Inhibition of LTB4” value in assay [1] (25 μM) is recorded as 72%. In addition, in assay [1], the IC50 amounted to 3 µM. Turning to `Cc1c(CC(=O)O)c2cc(OCc3csc(-c4ccc(C(F)(F)F)cc4)n3)ccc2n1Cc1ccc(Cl)cc1` [Example 39, 1-[(4-Chlorophenyl)methyl]-2-methyl-5-[[2-(4-trifluoromethylphenyl)-4-thiazolyl]methoxy]-1H-indole-3-acetic acid], the inhibition in assay [2] stood at 46%. Regarding `CCOC(=O)Cc1c(C)n(Cc2ccc(SC)cc2)c2ccc(OCc3nc4ccccc4s3)cc12` [Example 53, 5-(2-Benzothiazolylmethoxy)-1-[[4-(methylthio)phenyl]methyl]-2-methyl-1H-indole-3-acetic acid ethyl ester], the “% Inhibition of LTB4” value in assay [1] (25 μM) is on record as 80%. Besides, the inhibition in assay [2] came out at 1%. Turning to `Cc1c(CNC(=O)NO)c2cc(OCc3ccc4ccccc4n3)ccc2n1Cc1ccc(Cl)cc1` [Example 42, N-[[1-[(4-Chlorophenyl)methyl]-2-methyl-5-(2-quinolinylmethoxy)-1H-indol-3-yl]methyl]-N'-hydroxyurea], the “% Inhibition of LTB4” value in assay [1] (25 μM) stood at 89%. In addition, the IC50 in assay [1] turned out to be 5.6 µM. For `Cc1c(CC(=O)O)c2cc(OCc3csc(-c4ccccc4)n3)ccc2n1Cc1ccccc1` [Example 40, 1-[(Phenyl)methyl]-2-methyl-5-[(2-phenyl-4-thiazolyl)methoxy]-1H-indole-3-acetic acid], the inhibition in assay [2] came to 42%.
